Read-outs that look alike come from different tables or passages of the source.

The values that follow come from US20070129334A1, “Orally Active Purine-Based Inhibitors of Heat Shock Protein 90” (CONFORMA THERAPEUTICS CORPORATION, priority 2001, published 2007).

In series [1] the test system is HER-2 receptor (Hsp90 client) in MCF-7 cells. Put plainly: HER-2 degradation assay (MCF-7 cells, 16 h, phycoerythrin-labeled antibody and flow cytometry). Format: cell-based, human.
A short description of series [2]: in vivo. The conditions noted are these: Balb/C, mouse, plasma.
A short description of series [3]: Pharmacokinetics in Balb/C mice (IV 10 mg/kg, PO 100 mg/kg). To be noted: for IV Parameters T1/2 / IV Parameters VSS / IV Parameters Cl: IV 10 mg/kg; for IV Parameters T1/2 / IV Parameters VSS / PO Parameters T1/2 / PO Parameters Cmax / PO Parameters Tmax / PO Parameters AUC: H3PO4 salts; for PO Parameters T1/2 / PO Parameters Cmax / PO Parameters Tmax / PO Parameters AUC: PO 100 mg/kg; for PO Parameters Cmax: plasma; for IV Parameters Cl: H3PO4 salts in phosphatidylcholine/water dispersion; for PO Parameters AUC: over 4 h.

For series [4], the system named is MCF-7 breast cancer cells. Put plainly: MTS cell growth inhibition assay. The class given is cell-based, human. The conditions noted are these: MCF-7 cells, 5 days, SEM 9-21% of the mean.
For series [5] the following is noted: mouse, in vivo, po, 100 mg/kg.
The nature of series [6]: in vivo. The conditions noted are these: mouse, po, 100 mg/kg.
Series [7] can be described thus: Solubility in simulated gastric fluid, simulated intestinal fluid and serum. Format: physicochemical. To be noted: for Serum (PH 7.4): solubility in serum; for Gastric (PH 2.0): solubility in simulated gastric fluid; for Intestinal (PH 6.5): solubility in simulated intestinal fluid.
Series [8] deals with N87 xenograft model of human stomach cancer. To be noted: for tumor growth inhibition: N87.
Another series deals with MCF-7 xenograft tumors. To be noted: cited from earlier work.
The nature of series [9]: Mouse pharmacokinetics after oral administration at 100 mg/kg.
For series [10], the system named is Hsp90 clients in N87 stomach cancer xenograft tumors. Put plainly: Pharmacodynamic effect in N87 xenograft model. Format: in vivo, mice. As to the method:
The pharmacodynamic effect of amine 126 was examined in a N87 xenograft model (FIG. 1b), N87 being a stomach cancer cell line expressing high HER-2 levels. Mice were administered 126.H3PO4 orally at two different regimens (2×100 or 2×200 mg/kg/day) for three days, and were sacrificed 24 h after the last dosing.

Setting [11] is: Homo sapiens, MCF7, MCF-7 cells, 16 h, SEM 6-11% of the mean, read-out: HER-2 IC50.
Setting [12] is: oral 2×100 mg/kg/day for three days.

In turn, `CCCCn1c(Cc2cc(OC)ccc2Cl)nc2c(N)ncnc21` [Compound 311, 9-Butyl-8-(2-chloro-5-methoxy-benzyl)-9H-purin-6-ylamine] gave a melting point of 138 to 139 °C. Further, the IC50 in series [1] (Homo sapiens, MCF7, MCF-7 cells, 16 h, average of at least three observations, read-out: HER-2 IC50) was 20000 nM.

Consider `CCC(C)NCCCn1c(Sc2cc(OC)ccc2I)nc2c(N)ncnc21` (racemic) [Compound 109, 9-(3-sec-Butylamino-propyl)-8-(2-iodo-5-methoxy-phenylsulfanyl)-9H-purin-6-ylamine (racemate)], for which, in the series “in vivo [2]” (iv, 10 mg/kg), the clearance turned out to be 33 mL/min/kg. In addition, in the series “in vivo [2]” (po, 100 mg/kg), the area under the curve (AUC) is 6330 ng·h/mL, the Tmax is 30 min and the bioavailability was 28%. For the same compound, in series [3], the “IV Parameters T1/2” value is reported as 1.3 h, the “IV Parameters VSS” value worked out at 3.4 L/kg, the “PO Parameters T1/2” value is 42 min and the “PO Parameters Cmax” value came out at 4.8 µg/mL. For the same compound, in [4] (Homo sapiens, MCF7, 120 h), the IC50 was determined as 200 nM. In addition, in [1] (setting [11]), the IC50 was 210 nM.

Consider `CC(=O)OCCCn1c(Sc2nc3cccc(Cl)c3s2)nc2c(N)ncnc21` [Compound 242], for which the “plasma concentrations (in words)” value in series [5] is listed as “significantly lower than 264”. Moreover, the AUC in the series “in vivo [6]” is 1040 ng·h/mL. Further, in [7], the “Serum (PH 7.4)” value was 9 µg/mL, the “Gastric (PH 2.0)” value is 220 µg/mL and the “Intestinal (PH 6.5)” value was 16 µg/mL. Besides, in [1] (Homo sapiens, MCF7, read-out: HER-2), the IC50 amounted to 90 nM.

`COc1ccc(I)c(Sc2nc3c(N)ncnc3n2CCCNC(C)(C)C)c1` [Compound 95, 9-(3-tert-Butylamino-propyl)-8-(2-iodo-5-methoxy-phenylsulfanyl)-9H-purin-6-ylamine] gave a bioavailability in “in vivo [2]” (oral, 100 mg/kg) of at least 50%. In addition, in [3], the “IV Parameters T1/2” value is listed as 1.6 h, the “IV Parameters VSS” value stood at 24 L/kg, the “IV Parameters Cl” value is given as 131 mL/min/kg and the “PO Parameters T1/2” value came out at 54 min. Besides, in series [3], the “PO Parameters Tmax” value stood at 30 min, the “PO Parameters Cmax” value was found to be 6.7 µg/mL and the “PO Parameters AUC” value came out at 680 µg·min/mL. Besides, the “PO Parameters % F” value in series [3] (oral bioavailability, PO 100 mg/kg vs IV 10 mg/kg) turned out to be 97%. In series [4] (Homo sapiens, MCF7, 120 h), this compound displayed an IC50 of 200 nM. In addition, the IC50 in [1] (setting [11]) was found to be 140 nM.

Consider `COc1ccc(I)c(Sc2nc3c(N)ncnc3n2CCNCC(C)(C)C)c1.O=P(O)(O)O` [Compound 132.H3PO4, 9-[2-(2,2-Dimethyl-propylamino)-ethyl]-8-(2-iodo-5-methoxy-phenylsulfanyl)-9H-purin-6-ylamine, H3PO4 salt], for which the tumor growth inhibition entry in series [8] (oral 2×100 mg/kg/day, 5 days/week) was “statistically significant (p=0.02) tumor growth inhibition”. In addition, the toxicity entry in series [8] (oral 2×100 mg/kg/day, 5 days/week, mice) is “no overt toxicity”.

In series [4], `C#CCCCn1c(Cc2cc(OC)c(OC)c(OC)c2Cl)nc2c(N)nc(F)nc21` [PU24FCl] had an IC50 of 1200 nM. For the same compound, in the series with MCF-7 xenograft tumors (intraperitoneally 200 mg/kg), the tumor growth entry is “significantly repressed tumor growth”. The “pharmacodynamic response in tumors” value in the series with MCF-7 xenograft tumors (intraperitoneally 100-300 mg/kg, DMSO/EtOH/phosphate-buffered saline 1:1:1) is “down-regulation of HER-2 and Raf-1”. The “aqueous solubility (in words)” value in “Water solubility” was “too insoluble to be effectively formulated and delivered orally”.

With `Nc1ncnc2c1nc(Sc1nc3cccc(Cl)c3s1)n2CCNC1CC1` [Compound 264], in series [9], the “oral bioavailability (in words)” value is reported as “orally bioavailable”. In addition, in series [9] (PO 100 mg/kg), the C-max stood at 4513 ng/mL, the “Mouse PK PO AUC at 100 mg/kg PO” value was 430511 ng·min/mL, the “Mouse PK PO Cmax at 100 mg/kg” value amounted to 4479 ng/mL and the “time of C-max after dosing” value is recorded as 30 min. For the same compound, the half life in [9] (PO 100 mg/kg, estimated) is around 90 min. In addition, in series [7], the “Serum (PH 7.4)” value was 59 µg/mL, the “Gastric (PH 2.0)” value was 245 µg/mL and the “Intestinal (PH 6.5)” value was 21 µg/mL. Moreover, the IC50 in series [1] (9-N-alkyl position SAR, head prints no unit, nM, read-out: HER-2) was determined as 110 nM. Besides, the tumor growth inhibition in series [8] (oral 200 mg/kg 5 days/week, day 39, vs control group) was determined as 56%.

For the compound `COc1ccc(I)c(Sc2nc3c(N)ncnc3n2CCCNC(C)C)c1.O=P(O)(O)O` [Compound 126, 8-(2-Iodo-5-methoxy-phenylsulfanyl)-9-(3-isopropylamino-propyl)-9H-purin-6-ylamine H3PO4 salt], in series [3], the “IV Parameters T1/2” value was 4.2 h, the “IV Parameters VSS” value was found to be 22 L/kg, the “IV Parameters Cl” value worked out at 62 mL/min/kg and the “PO Parameters T1/2” value was determined as 90 min. In addition, in [3], the “PO Parameters Tmax” value worked out at 30 min, the “PO Parameters Cmax” value was 4.7 µg/mL and the “PO Parameters AUC” value turned out to be 450 µg·min/mL. In addition, in series [10] (setting [12]), the “degradation of HER-2, pHER-2, pRaf in tumor” value is given as “little or no degradation” and the “degrading Akt, pAkt, Raf-1, pMEK, cdk6, pRb in tumor” value was “still effective”. Besides, the “levels of HER-2 and pHER-2 in tumor” value in [10] (oral 2×200 mg/kg/day for three days) is listed as “decreased only partially”. In addition, the “degradation of Akt, pAkt, Raf-1, pRaf, cdk6, pRb in tumor” value in series [10] (oral 2×200 mg/kg/day for three days, 24 h after last dosing) is listed as “to levels comparable to those obtained with 17-AAG”. In addition, in series [4], the IC50 was 600 nM. Further, the IC50 in series [1] (MCF-7 cells, 16 h, SEM 6-11% of the mean, read-out: HER-2 IC50) worked out at 180 nM. In addition, the tumor growth inhibition result in series [8] (oral 200 mg/kg/day, once daily, 5 days/week) was “Tumor growth inhibition was observed”. The “mortality and weight loss” value in series [8] (oral 200 mg/kg/day, once daily, 5 days/week, mice) was “neither mortality nor weight loss was observed”.
